For this assay, the target named is HIV-1 protease WT subtype C (Human immunodeficiency virus type 1 group M subtype C, UniProt O12158). To be noted: protease variant subtype C.

Each structure is given as a SMILES string.

Our source for the Ki values is PMC4151706 (Journal of the American Chemical Society, 2014).

By Ki is commonly meant the dissociation constant of the complex between target and ligand, obtained from inhibition or displacement. Read a low Ki as tighter binding.

Sequence of HIV-1 protease WT subtype C (O12158 485-583): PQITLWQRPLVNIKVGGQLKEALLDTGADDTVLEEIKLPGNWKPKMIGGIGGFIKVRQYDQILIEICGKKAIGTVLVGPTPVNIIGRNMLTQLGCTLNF

For `CC(C)CN(C[C@@H](O)[C@H](Cc1ccccc1)NC(=O)O[C@H]1CO[C@H]2OCC[C@H]21)S(=O)(=O)c1ccc(N)cc1` [DRV, Darunavir], affinity was put at a Ki of 5 ± 2 pM.
